Laboratory results reported in PubChem BioAssay (NCI).
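The concentration for 50% growth inhibition is given as GI50. TGI is the concentration that stops growth completely.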

Columns and labels:
Assay in all cases: NCI tumour cell line growth inhibition, 384-well format
[1] = tested on: A498 renal
[2] = tested on: A549 NSCLC
[3] = tested on: ACHN renal
[4] = tested on: BT-549 breast
[5] = tested on: CAKI-1 renal
[6] = tested on: COLO 205 colon
[7] = tested on: DU-145 prostate
[8] = tested on: EKVX NSCLC
[9] = tested on: HCC-2998 colon
[10] = tested on: HCT-116 colon
[11] = tested on: HCT-15 colon
[12] = tested on: HL-60(TB) leukemia
[13] = tested on: HOP-62 NSCLC
[14] = tested on: HOP-92 NSCLC
[15] = tested on: HS 578T breast
[16] = tested on: HT29 colon
[17] = tested on: IGROV1 ovarian
[18] = tested on: KM12 colon
[19] = tested on: LOX IMVI melanoma
[20] = tested on: M14 melanoma
[21] = tested on: MALME-3M melanoma
[22] = tested on: MCF7 breast
[23] = tested on: MDA-MB-231 breast
[24] = tested on: MDA-MB-435 melanoma
[25] = tested on: MDA-MB-468 breast
[26] = tested on: MOLT-4 leukemia
[27] = tested on: NCI-H226 lung

Structure (SMILES): Cn1ncc(Cl)c1-c1cc(C(=O)N[C@H](CN)Cc2cccc(F)c2)sc1Cl
- GI50 [1]: 126 nM
- TGI [1]: 1240 nM
- GI50 [2]: 4010 nM
- TGI [2]: 16400 nM
- GI50 [3]: 3460 nM
- TGI [3]: 15500 nM
- GI50 [4]: 819 nM
- TGI [4]: 2450 nM
- GI50 [5]: 2760 nM
- TGI [5]: 14000 nM
- GI50 [6]: 1120 nM
- TGI [6]: 2360 nM
- GI50 [7]: 3380 nM
- TGI [7]: 14600 nM
- GI50 [8]: 2940 nM
- TGI [8]: 12500 nM
- GI50 [9]: 558 nM
- TGI [9]: 2010 nM
- GI50 [10]: 2280 nM
- TGI [10]: 7530 nM
- GI50 [11]: 1760 nM
- TGI [11]: 13100 nM
- GI50 [12]: 1320 nM
- TGI [12]: 2700 nM
- GI50 [13]: 2310 nM
- TGI [13]: 6220 nM
- GI50 [14]: 2090 nM
- TGI [14]: 8600 nM
- GI50 [15]: 1010 nM
- TGI [15]: 2560 nM
- GI50 [16]: 1150 nM
- TGI [16]: 2890 nM
- GI50 [17]: 43.6 nM
- TGI [17]: 534 nM
- GI50 [18]: 532 nM
- TGI [18]: 2210 nM
- GI50 [19]: 1750 nM
- TGI [19]: 3230 nM
- GI50 [20]: 1710 nM
- TGI [20]: 3150 nM
- GI50 [21]: 1300 nM
- TGI [21]: 2590 nM
- GI50 [22]: 460 nM
- TGI [22]: 2000 nM
- GI50 [23]: 5950 nM
- TGI [23]: 18800 nM
- GI50 [24]: 2010 nM
- TGI [24]: 5430 nM
- GI50 [25]: 187 nM
- TGI [25]: 1950 nM
- GI50 [26]: 150 nM
- TGI [26]: 1120 nM
- GI50 [27]: 2930 nM
- TGI [27]: 9220 nM
